Reference: article PMC8086144, “A novel peptide antagonist of the human growth hormone receptor” (The Journal of Biological Chemistry, 2021)

Target: T1, hGHR (Homo sapiens, UniProt P10912)
T1 construct: previously reported to express high levels of endogenous hGHR; host or cells: SK-MEL-28, MALME-3M, IM9
T1 sequence (P10912 19-638): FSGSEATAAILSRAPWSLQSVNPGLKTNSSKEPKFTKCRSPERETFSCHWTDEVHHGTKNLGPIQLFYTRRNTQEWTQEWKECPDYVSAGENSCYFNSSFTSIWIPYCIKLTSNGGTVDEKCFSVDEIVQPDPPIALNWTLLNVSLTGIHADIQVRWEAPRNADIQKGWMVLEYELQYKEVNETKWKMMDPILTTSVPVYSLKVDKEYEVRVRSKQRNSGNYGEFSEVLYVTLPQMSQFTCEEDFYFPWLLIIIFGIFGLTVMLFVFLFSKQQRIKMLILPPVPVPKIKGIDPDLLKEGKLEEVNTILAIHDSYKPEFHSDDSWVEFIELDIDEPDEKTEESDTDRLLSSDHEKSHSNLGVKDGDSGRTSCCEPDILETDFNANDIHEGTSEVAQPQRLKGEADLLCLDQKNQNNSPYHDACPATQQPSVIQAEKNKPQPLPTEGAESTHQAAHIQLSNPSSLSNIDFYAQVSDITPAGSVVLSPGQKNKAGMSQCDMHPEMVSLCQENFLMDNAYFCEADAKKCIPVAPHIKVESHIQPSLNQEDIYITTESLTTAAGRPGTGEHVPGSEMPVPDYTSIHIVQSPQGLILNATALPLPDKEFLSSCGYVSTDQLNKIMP
Assay: hGH-mediated pSTAT5 in MALME-3M cells, Western blot
Format: cell-based
Conditions: 20 min
Method: SK-MEL-28, MALME-3M, and T84 cells were grown and maintained in Eagle's Minimal Essential Medium. IM9 and L cells were grown in RPMI-1640 media and Dulbecco's modified Eagle's medium, respectively. All growth media was supplemented with 10% fetal bovine serum and 1× antibiotic-antimycotic […] solution. Cells were grown at 37 °C under a 5% CO2 atmosphere in a humidified incubator, and growth media was replaced every 48 h during incubation. No hGH was present in or added to the growth media unless specifically indicated. […]
Following treatment, the cells were harvested at the indicated time points, and the total protein was extracted. […] Sample protein concentration was quantified using a Bradford assay with bovine serum albumin as the protein standard. Absorbance at 595 nm was measured using a Spectramax 250 multimode plate reader (Molecular Devices) and processed using SoftmaxPro v4.7.1 software.
Cytosolic fractions from treated cells were thawed on ice, and 80 μg protein was loaded onto polyacrylamide gels for separation by SDS-PAGE. […] Chemiluminescence signals were detected using a GelDoc (BioRad) fluorescence imager. […] Percent inhibition was then measured by subtracting the pSTAT5 band intensity in each lane from the pSTAT5 band intensity of hGH-treated samples. […]

inhibition at 0.05 µM (50 nM inhibitor with 2.5 nM hGH, Western blot, compared with hGH alone, read-out: inhibition of hGH-induced pSTAT5): 40% | suppression of hGH-mediated pSTAT5 (200 nM S1H with 2.5 nM hGH, Western blot densitometry, n = 3): 56%
SMILES: CC[C@H](C)[C@H](NC(=O)[C@H](Cc1ccc(O)cc1)NC(C)=O)C(=O)N1CCC[C@H]1C(=O)N[C@@H](CCCCN)C(=O)N[C@@H](CCC(=O)O)C(=O)N[C@@H](CCC(N)=O)C(=O)N[C@@H](CCCCN)C(=O)N[C@@H](Cc1ccc(O)cc1)C(=O)N[C@@H](CO)C(=O)N[C@@H](Cc1ccccc1)C(=O)N[C@@H](CC(C)C)C(=O)N[C@@H](CCC(N)=O)C(=O)N[C@@H](CC(N)=O)C(=O)N1CCC[C@H]1C(=O)N[C@@H](CCC(N)=O)C(=O)N[C@H](C(N)=O)[C@@H](C)O [S1H]
